Reference: patent US20050148616A1, “Inhibitor of TNF-alpha and IL-1beta production” (priority 2003, published 2005)
Counter-ions that a name gives are not always drawn.

What was measured:
[1] = test system: TNF-α; assay: LPS-induced TNF-α production in human normal PBMCs (ELISA); type: cell-based
Method: (§1) PBMCs were isolated from fresh blood using a Ficoll-Paque Plus reagent (Amersham Bioscience) according to the protocol recommended by the manufacturer. The cells were suspended in a RPMI 1640 medium containing 10% FBS at a concentration of 1×10^5 cells/ml and seeded in a 96-well plate (1×10^4 cells total in each well). Each reaction was carried out in three wells.
(§2) 10 μl of pseudolycorine hydrochloride in DMSO was added to wells to obtain the final concentrations at 0.1, 0.3, 1, 3, 10, 30, and 100 μg/ml. In a positive control, dexamethason (DEX), an anti-inflammatory agent, instead of pseudolycorine hydrochloride, was added (final concentration 10 μM). In a negative control, 10 μl of the medium, instead of pseudolycorine hydrochloride, was added. The plate was placed in a 5% CO2 incubator at 37° C. for 15 minutes. After 10 μl aliquots of 100 μg/ml of LPS were added to all wells except for the negative control, the plate was placed in a 5% CO2 incubator at 37° C. overnight.
(§3) The plate was spun at 1000 rpm for 15 minutes and the supernatants were collected. The concentrations of TNF-α and IL-1β were measured by the TNF-α ELISA (Enzyme Linked Immunosorbent Assay) Kit and IL-1β ELISA Kit (Jingmei Bioengineer Technology). The inhibition ratios of TNF-α and IL-1β were calculated as follows: TNF-α Inhibition Ratio (%)=[TNF-α]control−[TNF-α]PHCl/[TNF-α]control×100% IL-1β Inhibition Ratio (%)=[IL-1β]control−[IL-1β]PHCl/[IL-1β]control×100% where [TNF-α]PHCl is the concentration of TNF-α in PBMCs treated with pseudolycorine hydrochloride and LPS, [TNF-α]control is the concentration of TNF-α in PBMCs treated with LPS and the medium, [IL-1β]PHCl is the concentration of IL-1β in PBMCs treated with pseudolycorine hydrochloride and LPS, and [IL-1β]control is the concentration of IL-1β in PBMCs treated with LPS and the medium.

[2] = test system: IL-1β; assay: LPS-induced IL-1β production in human normal PBMCs (ELISA); type: cell-based
Method: as §1, §2, §3

[3] = compared with dexamethason (DEX) at 10 μM, LPS-stimulated human PBMCs

COc1cc2c(cc1O)[C@@H]1[C@H](O)[C@@H](O)C=C3CCN(C2)[C@H]31 [pseudolycorine hydrochloride]
inhibition of expression of TNF-α, concentration dependence ([1]; 0.1-100 μg/ml, FIG. 3): concentration-dependent manner | concentration at which expression of TNF-α was inhibited ([1]; LPS-stimulated human PBMCs, overnight, ELISA of supernatant, FIG. 1): ≥ 0.3 µg/mL | concentration at which expression of TNF-α was inhibited more effectively than DEX [1, 3]: ≥ 3 µg/mL | inhibition of expression of IL-1β, concentration dependence ([2]; 0.1-100 μg/ml, FIG. 4): concentration-dependent manner | concentration at which expression of IL-1β was inhibited ([2]; LPS-stimulated human PBMCs, overnight, ELISA of supernatant, FIG. 2): ≥ 1 µg/mL | concentration at which expression of IL-1β was inhibited more effectively than DEX [2, 3]: ≥ 10 µg/mL
